{"source": "paper PMC3062156", "about": "“Biochanin A, a Phytoestrogenic Isoflavone with Selective Inhibition of Phosphodiesterase 4, Suppresses Ovalbumin-Induced Airway Hyperresponsiveness” (Evidence-based Complementary and Alternative Medicine : eCAM, 2011)", "biological_target": "T1, phosphodiesterase 4 (PDE4), high-affinity rolipram binding sites (PDE4H)", "T1 construct": "native PDE4 in particulate (cell membrane) portion of guinea pig whole brain; subtype not specified", "test": "[3H]-rolipram radioligand displacement on guinea pig brain membranes; weak, […] displacement at […]", "set-up": "species or system Cavia porcellus", "conditions": "read-out: EC50 (the source's name)", "note": "pIC50: −log10 of the molar value."}
{"smiles": "COc1ccc(-c2coc3cc(O)cc(O)c3c2=O)cc1", "note": "[Biochanin A]", "values": [{"measurement": "pIC50", "value": "< 3.52"}]}
